This passage reports IC50 results from patent US20240317735A1, “HYDROISOQUINOLINE OR HYDRONAPHTHYRIDINE COMPOUNDS FOR THE TREATMENT OF AUTOIMMUNE DISEASE” (Hoffmann-La Roche Inc., priority 2020, published 2024).

Some results are limits rather than exact numbers.

The test concerns the target T1, human TLR8 (Homo sapiens, UniProt Q9NR97).
T1 construct: host or cells: HEK293 (HEK-Blue hTLR8)
T1 sequence (Q9NR97 27-1041): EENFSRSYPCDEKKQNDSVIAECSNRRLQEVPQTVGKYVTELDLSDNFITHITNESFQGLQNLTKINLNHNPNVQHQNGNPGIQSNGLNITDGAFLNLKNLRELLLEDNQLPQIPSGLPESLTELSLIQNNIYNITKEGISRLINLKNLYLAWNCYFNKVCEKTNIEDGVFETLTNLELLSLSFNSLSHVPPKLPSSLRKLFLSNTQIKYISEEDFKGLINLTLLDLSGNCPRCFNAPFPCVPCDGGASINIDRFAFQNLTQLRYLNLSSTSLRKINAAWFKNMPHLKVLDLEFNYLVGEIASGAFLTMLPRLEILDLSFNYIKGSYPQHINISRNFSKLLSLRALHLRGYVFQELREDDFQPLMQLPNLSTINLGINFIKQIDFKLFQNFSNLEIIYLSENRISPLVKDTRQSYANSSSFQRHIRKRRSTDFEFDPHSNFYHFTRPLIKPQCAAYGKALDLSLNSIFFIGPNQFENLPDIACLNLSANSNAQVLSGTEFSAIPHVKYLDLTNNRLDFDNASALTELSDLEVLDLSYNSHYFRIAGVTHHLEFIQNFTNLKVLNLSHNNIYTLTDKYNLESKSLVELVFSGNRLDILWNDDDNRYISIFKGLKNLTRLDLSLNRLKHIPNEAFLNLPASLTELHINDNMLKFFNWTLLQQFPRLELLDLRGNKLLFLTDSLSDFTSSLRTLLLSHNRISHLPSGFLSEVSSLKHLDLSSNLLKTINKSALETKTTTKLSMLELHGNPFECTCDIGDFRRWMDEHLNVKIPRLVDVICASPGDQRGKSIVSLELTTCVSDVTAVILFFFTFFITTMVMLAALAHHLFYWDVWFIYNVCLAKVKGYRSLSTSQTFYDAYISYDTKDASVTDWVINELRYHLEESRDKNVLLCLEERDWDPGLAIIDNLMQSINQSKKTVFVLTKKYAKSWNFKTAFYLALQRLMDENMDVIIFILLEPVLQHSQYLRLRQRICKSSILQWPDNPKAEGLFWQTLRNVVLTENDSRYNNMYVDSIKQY
The test can be described thus: HEK293-Blue-hTLR-8 cells assay (SEAP reporter, R848 stimulation). Format: cell-based. To be noted: HEK293-Blue-hTLR8 cells, R848, 20 hrs; read-out: HEK/hTLR8 IC50. As for the experimental part: The following tests were carried out in order to determine the activity of the compounds of formula (I) and (Ia) in HEK293-Blue-hTLR-7/8/9 cells assay.
A stable HEK293-Blue-hTLR-8 cell line was purchased from InvivoGen (Cat. #: hkb-htlr8, San Diego, California, USA). These cells were originally designed for studying the stimulation of human TLR8 by monitoring the activation of NF-κB. A SEAP (secreted embryonic alkaline phosphatase) reporter gene was placed under the control of the IFN-β minimal promoter fused to five NF-κB and AP-1-binding sites. The SEAP was induced by activating NF-κB and AP-1 via stimulating HEK-Blue hTLR8 cells with TLR8 ligands. Therefore the reporter expression was declined by TLR8 antagonist under the stimulation of a ligand, such as R848, for incubation of 20 hrs. The cell culture supernatant SEAP reporter activity was determined using QUANTI-Blue™ kit (Cat. #: rep-qb1, Invivogen, San Diego, Ca, USA) at a wavelength of 640 nm, a detection medium that turns purple or blue in the presence of alkaline phosphatase.
HEK293-Blue-hTLR8 cells were incubated at a density of 250,000˜450,000 cells/mL in a volume of 170 μL in a 96-well plate in Dulbecco's Modified Eagle's medium (DMEM) containing 4.5 g/L glucose, […] penicillin, […], […] Normocin, 2 mM L-glutamine, 10% (v/v) heat-inactivated fetal bovine serum with addition of 20 μL test compound in a serial dilution in the presence of final DMSO at 1% and 10 μL of 60 uM R848 in above DMEM, perform incubation under 37° C. in a C02 incubator for 20 hrs. Then 20 μL of the supernatant from each well was incubated with 180 μL Quanti-blue substrate solution at 37° C. for 2 hrs and the absorbance was read at 620-655 nm using a spectrophotometer. The signaling pathway that TLR8 activation leads to downstream NF-κB activation has been widely accepted, and therefore similar reporter assay was modified for evaluating TLR8 antagonist.
Take `C[C@H]1CN(c2ccnc3c2cnn3C)Cc2ccc(N3C4CCC3CNC4)cc21` [Example 27, (4R)-6-(3,8-diazabicyclo[3.2.1]octan-8-yl)-4-methyl-2-(1-methylpyrazolo[3,4-b]pyridin-4-yl)-3,4-dihydro-1H-isoquinoline]: the IC50 amounted to 3 nM.

Consider `C[C@H]1CN(c2ccnc3c2cnn3C)Cc2ccc(N3CCC(N4CC(N)C4)CC3)cc21` [Example 28, 1-[1-[(4R)-4-methyl-2-(1-methylpyrazolo[3,4-b]pyridin-4-yl)-3,4-dihydro-1H-isoquinolin-6-yl]-4-piperidyl]azetidin-3-amine], for which the IC50 is under 0.3 nM.

`C[C@H]1CN(c2ccnc3c2cnn3C)Cc2ccc(N3CCC(N4CC[C@@H](N)[C@H](O)C4)CC3)cc21` [Example 29, trans-4-amino-1-[1-[(4R)-4-methyl-2-(1-methylpyrazolo[3,4-b]pyridin-4-yl)-3,4-dihydro-1H-isoquinolin-6-yl]-4-piperidyl]piperidin-3-ol]: the IC50 was determined as 2 nM.

For `C[C@H]1CN(c2ccnc3c2cnn3C)Cc2ccc(N3CCN(S(=O)(=O)C4CCNC4)CC3)cc21` (stereo partly drawn) [Example 33, (4R)-4-methyl-2-(1-methylpyrazolo[3,4-b]pyridin-4-yl)-6-(4-pyrrolidin-3-ylsulfonylpiperazin-1-yl)-3,4-dihydro-1H-isoquinoline], the IC50 was found to be 15 nM.

Turning to `C[C@H]1CN(c2ccnc3c2cnn3C)Cc2ccc(N3CC4(CCNC4)OC3=O)cc21` (stereo partly drawn) [Example 35, 3-[(4R)-4-methyl-2-(1-methylpyrazolo[3,4-b]pyridin-4-yl)-3,4-dihydro-1H-isoquinolin-6-yl]-1-oxa-3,7-diazaspiro[4.4]nonan-2-one], the IC50 is 14 nM.

For `C[C@H]1CN(c2ccnc3c2cnn3C)Cc2ccc(N3CCN(Cc4cn(C)cn4)CC3)cc21` [Example 37, (4R)-4-methyl-6-[4-[(1-methylimidazol-4-yl)methyl]piperazin-1-yl]-2-(1-methylpyrazolo[3,4-b]pyridin-4-yl)-3,4-dihydro-1H-isoquinoline], the IC50 amounted to 5 nM.

For `C[C@H]1CN(c2ccnc3c2cnn3C)Cc2ccc(N3CCN(CCN(C)C)CC3)cc21` [Example 38, N,N-dimethyl-2-[4-[(4R)-4-methyl-2-(1-methylpyrazolo[3,4-b]pyridin-4-yl)-3,4-dihydro-1H-isoquinolin-6-yl]piperazin-1-yl]ethanamine], the IC50 is under 0.3 nM.

With `C[C@H]1CN(c2ccnc3c2cnn3C)Cc2ccc(OC[C@H]3CNCCN3C)cc21` [Example 43, (4R)-4-methyl-2-(1-methylpyrazolo[3,4-b]pyridin-4-yl)-6-[[(2R)-1-methylpiperazin-2-yl]methoxy]-3,4-dihydro-1H-isoquinoline], the IC50 worked out at 2 nM.

For the compound `C[C@H]1CN(c2ccnc3c2cnn3C)Cc2ccc(OC[C@@H]3CNCCN3C=O)cc21` [Example 45, (2S)-2-[[(4R)-4-methyl-2-(1-methylpyrazolo[3,4-b]pyridin-4-yl)-3,4-dihydro-1H-isoquinolin-6-yl]oxymethyl]piperazine-1-carbaldehyde], the IC50 was found to be 10 nM.

In the case of `C[C@H]1CN(c2ccnc3c2cnn3C)Cc2ccc(N3C[C@@H](N)[C@H](O)C3)cc21` [Example 46, trans-4-amino-1-[(4R)-4-methyl-2-(1-methylpyrazolo[3,4-b]pyridin-4-yl)-3,4-dihydro-1H-isoquinolin-6-yl]pyrrolidin-3-ol], the IC50 amounted to 7 nM.

As for `Cc1cc(N2Cc3ccc(N4C[C@@H](N)[C@H](O)C4)cc3[C@@H](C)C2)c2cnn(C)c2n1` [Example 47, trans-4-amino-1-[(4R)-2-(1,6-dimethylpyrazolo[3,4-b]pyridin-4-yl)-4-methyl-3,4-dihydro-1H-isoquinolin-6-yl]pyrrolidin-3-ol], the IC50 came out at 3 nM.

With `Cc1cc(N2Cc3ccc(N4CC5(CNCCO5)C4)cc3[C@@H](C)C2)c2cnn(C)c2n1` [Example 48, 2-[(4R)-2-(1,6-dimethylpyrazolo[3,4-b]pyridin-4-yl)-4-methyl-3,4-dihydro-1H-isoquinolin-6-yl]-5-oxa-2,8-diazaspiro[3.5]nonane], the IC50 worked out at 6 nM.

For `C[C@H]1CN(c2ccnc3c2cnn3C)Cc2ccc(N3CCNC(CO)C3)cc21` (stereo partly drawn) [Example 49, [4-[(4R)-4-methyl-2-(1-methylpyrazolo[3,4-b]pyridin-4-yl)-3,4-dihydro-1H-isoquinolin-6-yl]piperazin-2-yl]methanol], the IC50 was found to be 2 nM.

In the case of `C[C@H]1CN(c2ccnc3c2cnn3C)Cc2ccc(N3CCN[C@@H](CO)C3)cc21` [Example 50, [(2R)-4-[(4R)-4-methyl-2-(1-methylpyrazolo[3,4-b]pyridin-4-yl)-3,4-dihydro-1H-isoquinolin-6-yl]piperazin-2-yl]methanol], the IC50 came out at 3 nM.

With `C[C@H]1CN(c2ccnc3c2cnn3C)Cc2ccc(N3CCN[C@H](CO)C3)cc21` [Example 51, [(2S)-4-[(4R)-4-methyl-2-(1-methylpyrazolo[3,4-b]pyridin-4-yl)-3,4-dihydro-1H-isoquinolin-6-yl]piperazin-2-yl]methanol], the IC50 was determined as 4 nM.

For the compound `C[C@H]1CN(c2ccnc3c2cnn3C)Cc2ccc(N3CC4(CCNC4)CC3=O)cc21` (stereo partly drawn) [Example 52, 2-[(4R)-4-methyl-2-(1-methylpyrazolo[3,4-b]pyridin-4-yl)-3,4-dihydro-1H-isoquinolin-6-yl]-2,7-diazaspiro[4.4]nonan-3-one], the IC50 amounted to 3 nM.

With `Cc1cc(N2Cc3ccc(N4CCC(N)CC4)nc3[C@@H](C)C2)c2cnn(C)c2n1` [Example 58, 1-[(8S)-6-(1,6-dimethylpyrazolo[3,4-b]pyridin-4-yl)-8-methyl-7,8-dihydro-5H-1,6-naphthyridin-2-yl]piperidin-4-amine], the IC50 came to 0.4 nM.

In the case of `Cc1cc(N2Cc3ccc(N4CCC(C)(N)CC4)nc3[C@@H](C)C2)c2cnn(C)c2n1` [Example 59, 4-methyl-1-[(8S)-6-(1,6-dimethylpyrazolo[3,4-b]pyridin-4-yl)-8-methyl-7,8-dihydro-5H-1,6-naphthyridin-2-yl]piperidin-4-amine], the IC50 was 0.5 nM.

Consider `Cc1cc(N2Cc3ccc(N4CCC(N(C)C)CC4)nc3[C@@H](C)C2)c2cnn(C)c2n1` [Example 60, N,N-dimethyl-1-[(8S)-6-(1,6-dimethylpyrazolo[3,4-b]pyridin-4-yl)-8-methyl-7,8-dihydro-5H-1,6-naphthyridin-2-yl]piperidin-4-amine], for which the IC50 amounted to 0.5 nM.

As to `Cc1cc(N2Cc3ccc(N4CCC(O)(CN(C)C)CC4)nc3[C@@H](C)C2)c2cnn(C)c2n1` [Example 61, 4-[(dimethylamino)methyl]-1-[(8S)-6-(1,6-dimethylpyrazolo[3,4-b]pyridin-4-yl)-8-methyl-7,8-dihydro-5H-1,6-naphthyridin-2-yl]piperidin-4-ol], the IC50 turned out to be 0.5 nM.

On to `C[C@H]1CN(c2ccnc3c2cnn3C)Cc2ccc(N3CCNCC3)nc21` [Example 62, (8S)-8-methyl-6-(1-methylpyrazolo[3,4-b]pyridin-4-yl)-2-piperazin-1-yl-7,8-dihydro-5H-1,6-naphthyridine], for which the IC50 came out at 2 nM.
